Test results as given in patent US20250002448A1, “ALLOSTERIC MODULATORS OF NICOTINIC ACETYLCHOLINE RECEPTORS” (MERCK SHARP & DOHME LLC, priority 2021, published 2025).
Like-named read-outs stand apart in the source and are kept apart here.

Biological target: T1, human a7 nAChR (Homo sapiens, UniProt P36544)
T1 construct: catalogue number not given
Assay: automated patch-clamp electrophysiology functional assay (Assay A), IonFlux HT
Format: cell-based
Conditions: HEK cell line stably expressing human RIC-3 and human a7, whole-cell population patch, 40 μM acetylcholine
Protocol: The a7 nAChR positive allosteric modulator (PAM) activity of the present compounds may be tested using assays known in the art. The a7 nAChR PAMs described herein have activities in an automated patch-clamp electrophysiology functional assay as described in the examples. The assay was performed using the lonFlux HT in a whole-cell, population patch configuration. See Golden et al. Assay Drug Dev. Technol. (2011) 9:608-619. The compounds were assessed for their ability to modulate the function of the human a7 nAChR stably expressed in a HEK cell line both in the presence, and in the absence of the natural a7 agonist acetylcholine. By performing a series of such measurements at different concentrations, the effective concentration of the a7 nAChR PAMs (EC50) was determined. See Spencer et al. Assay Drug Dev. Technol. (2012) 10:313-324.
Direct activation of a7 (agonism), and potentiation of acetylcholine-evoked a7 currents was determined as follows:
Automated patch-clamp electrophysiology was performed using the IonFlux HT (Fluxion Biosciences Inc., San Francisco, CA) in the whole-cell, population patch configuration. Test compounds were assessed for their ability to modulate the function of the a7 nicotinic acetylcholine receptor both in the presence, and in the absence of the natural a7 agonist acetylcholine. A HEK cell line stably expressing both human RIC-3 and human a7 (PrecisION hnAChR a7/RIC-3. Eurofins Pharma, St. Charles, MO) was cultured in 175 cm^2 triple-layer tissue culture flasks to no more than 90% confluency in DMEM/F-12 growth media supplemented with 10% heat-inactivated fetal bovine serum, 1% non-essential amino acids. 0.625 μg/mL Puromycin, and 400 μg/mL Geneticin. Immediately prior to assay, cells were detached by first aspirating growth media, rinsing with Dulbecco's phosphate buffered saline, and then adding 10 mL of Accutase (Innovative Cell Technologies, San Diego, CA) to the flask and then incubating at 37° C. for 5 minutes. Detached cells were then recovered by the addition of 40 mL of CHO-serum-free media supplemented with 25 mM HEPES, and rocked gently in a 50 ml conical tube for 20 minutes prior to patch-clamp assay. After recovery, cells were pelleted by centrifugation at 1.000 RPM for 1 minute in a compact bench top centrifuge: recovery media was aspirated and cells were resuspended in external recording solution (150 mM NaCl, 5 mM KCl, 2 mM CaCl2), 1 mM MgCl2, 10 mM HEPES, 12 mM dextrose) to a density of 5.0×10^6 cells/mL. The cell suspension was added to the cell inlet wells on an IonFlux HT population patch plate which had previously been rinsed and primed with deionized H2O. Test compounds were serially diluted in DMSO and then resuspended to the final test concentration in external recording solution, with, or without 40 μM acetylcholine added to the external recording solution: test compounds were then transferred to the IonFlux HT population patch plate. Internal recording solution (110 mM TrisPO4, 28 mM TrisBase, 0.1 mM CaCl2), 2 mM MgCl2, 11 mM EGTA, 4 mM MgATP) was added to the internal recording solution inlet wells on the IonFlux HT patch plate previously loaded with cells and test compounds, and the plate loaded into the lonFlux HT instrument. A protocol was executed on the IonFlux HT to trap the cells, break into the cells, and establish the whole-cell recording configuration: cells were voltage-clamped at a holding potential of −60 mV for the duration of the experiment, all experiments were conducted at room temperature, and the IonFlux HT injection pressure was 8 psi for solution applications. Upon establishing the whole-cell configuration, external recording solution was perfused into the recording chambers for 120 seconds and then 40 μM acetylcholine was applied for 1 second and immediately washed off with external recording solution for 60 seconds. […]

T1 sequence (P36544 23-502): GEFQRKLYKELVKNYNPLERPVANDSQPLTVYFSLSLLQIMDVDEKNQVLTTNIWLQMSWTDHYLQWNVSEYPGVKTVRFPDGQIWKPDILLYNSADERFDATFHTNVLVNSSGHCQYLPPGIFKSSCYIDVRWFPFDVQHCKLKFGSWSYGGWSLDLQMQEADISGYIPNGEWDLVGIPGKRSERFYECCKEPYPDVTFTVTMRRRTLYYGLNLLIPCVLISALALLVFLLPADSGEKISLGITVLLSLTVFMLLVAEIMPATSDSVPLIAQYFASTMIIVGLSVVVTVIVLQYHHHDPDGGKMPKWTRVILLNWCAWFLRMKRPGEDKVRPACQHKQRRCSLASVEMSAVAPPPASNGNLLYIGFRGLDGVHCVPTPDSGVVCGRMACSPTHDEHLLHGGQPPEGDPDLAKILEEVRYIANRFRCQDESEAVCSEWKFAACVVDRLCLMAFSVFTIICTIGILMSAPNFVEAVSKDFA

EC50 (read-out: a7 nAChR EC50) | EC50 (read-out: α7 nAChR Potency) | SMILES
4.5 µM | 0.5 to 5 µM | CCOc1ccc([C@H](COC)NC(=O)C2CC23CCc2ccccc23)cc1 (mixture of isomers) [Example 1, N-[(1R)-1-(4-Ethoxyphenyl)-2-Methoxy-Ethyl[-2′,3′-Dihydrospiro]Cyclopropane-1,1′-Indene]-2-Carboxamide, Mixture a]
0.42 µM | 0.1 to 0.5 µM | CCOc1ccc([C@H](COC)NC(=O)C2CC23CCc2ccccc23)cc1 (mixture of isomers) [Example 2, N-[(1R)-1-(4-Ethoxyphenyl)-2-Methoxy-Ethyl]-2′,3′-Dihydrospiro[Cyclopropane-1,1′-Indene]-2-Carboxamide, Mixture B]
3.2 µM | 0.5 to 5 µM | O=C(NC1(c2ccc(F)cc2)COC1)C1CC12CCc1ccccc12 (racemic) [Example A1, N-[3-(4-Fluorophenyl)oxetan-3-yl]-2′, 3′-dihydrospiro[cyclopropane-1,1′-indene]-2-carboxamide]
– | 0.5 to 5 µM | COc1ccc(C2(NC(=O)[C@@H]3C[C@]34COc3ccc(F)cc34)CC2)cn1 (relative stereo) [Example A16, cis-5-Fluoro-N-[1-(6-methoxypyridin-3-yl)cyclopropyl]-2H-spiro[1-benzofuran-3,1′-cyclopropane]-2′-carboxamide]
1.6 µM | 0.5 to 5 µM | CCOc1ccc([C@H](COC)NC(=O)C2CC23CCc2ccc(F)cc23)cc1 (single isomer, unassigned) [Example A2]
0.7 µM | 0.5 to 5 µM | CCOc1ccc([C@H](COC)NC(=O)C2CC23CCc2ccc(F)cc23)cc1 (single isomer, unassigned) [Example A3]
0.74 µM | 0.5 to 5 µM | CCOc1ccc([C@H](COC)NC(=O)C2CC23CCCc2ccccc23)cc1 (single isomer, unassigned) [Example B1]
0.59 µM | 0.5 to 5 µM | CCOc1ccc([C@H](COC)NC(=O)C2CC23CCc2cc(F)ccc23)cc1 (single isomer, unassigned; diastereomer b) [Example 4]
0.48 µM | 0.1 to 0.5 µM | CCOc1ccc([C@H](COC)NC(=O)C2CC23COc2ccc(F)cc23)cc1 (single isomer, unassigned; diastereomer d) [Example 5]
– | 0.5 to 5 µM | CCOc1ccc([C@H](COC)NC(=O)C2CC23COc2ccc(F)cc23)cc1 (stereo in doubt) [Example A10, cis-N-[(1R)-1-(4-Ethoxyphenyl)-2-methoxyethyl]-5-fluoro-2H-spiro[I-benzofuran-3,1′-cyclopropane]-2′-carboxamide]
3 µM | 0.5 to 5 µM | CCOc1ccc([C@@H](NC(=O)C2CC23COc2ccc(F)cc23)C(F)F)cn1 (stereo in doubt) [Example A12, cis-N-[(1R)-1-(6-Ethoxypyridin-3-yl)-2,2-difluoroethyl]-5-fluoro-2H-spiro[1-benzofuran-3,1′-cyclopropane]-2′-carboxamide]
0.79 µM | 0.5 to 5 µM | CCOc1ccc([C@H](CF)NC(=O)C2CC23COc2ccc(F)cc23)cn1 (stereo in doubt) [Example A13, cis-N-[(1R)-1-(6-Ethoxypyridin-3-yl)-2-fluoroethyl]-5-fluoro-2H-spiro[1-benzofuran-3,1′-cyclopropane]-2′-carboxamide]
– | 0.5 to 5 µM | O=C(N[C@@H](C(F)F)C1CCCCC1)C1CC12COc1ccc(F)cc12 (stereo in doubt) [Example A14, cis-N-[(1R)-1-Cyclohexyl-2,2-difluoroethyl]-5-fluoro-2H-spiro[1-benzofuran-3,1′-cyclopropane]-2′-carboxamide]
0.77 µM | 0.5 to 5 µM | O=C(N[C@@H](CO)C1CCCCC1)C1CC12COc1ccc(F)cc12 (stereo in doubt) [Example A15, cis-N-[ (1R)-1-Cyclohexyl-2-hydroxyethyl]-5-fluoro-2H-spiro[1-benzofuran-3,1′-cyclopropane]-2′-carboxamide]
0.69 µM | 0.5 to 5 µM | CCOc1ccc([C@H](COC)NC(=O)[C@@H]2C[C@]23CCc2ccccc23)cc1 [Example 3, (1R,2R)-N-[ (1R)-1-(4-Ethoxyphenyl)-2-Methoxy-Ethyl]-2′,3′-Dihydrospiro[Cyclopropane-1,1′-Indene]-2-Carboxamide]
1.2 µM | 0.5 to 5 µM | O=C(N[C@@H](CO)C1CCCCC1)C1CC12CCc1ccc(F)cc12 (stereo partly drawn) [Example A4, N-[(1R)-1-Cyclohexyl-2-hydroxyethyl]-6′-fluoro-2′, 3′-dihydrospiro[cyclopropane-1,1′-indene]-2-carboxamide]
1.4 µM | 0.5 to 5 µM | CCOc1ccc([C@H](CO)NC(=O)C2CC23CCc2ccc(F)cc23)cn1 (stereo partly drawn) [Example A5, N-[(1R)-1-(6-Ethoxypyridin-3-yl)-2-hydroxyethyl]-6′-fluoro-2′, 3′-dihydrospiro[cyclopropane-1,1′-indene]-2-carboxamide]
– | 0.5 to 5 µM | O=C(NC1(c2ccc(F)cc2)COC1)C1CC12CCc1ccc(F)cc12 (centres unmarked) [Example A6]
– | 0.5 to 5 µM | O=C(N[C@@H](C(F)F)C1CCCCC1)C1CC12CCc1ccc(F)cc12 (stereo partly drawn) [Example A7, N-[(1R)-1-Cyclohexyl-2,2-difluoroethyl]-6′-fluoro-2′, 3′-dihydrospiro[cyclopropane-1,1′-indene]-2-carboxamide]
0.63 µM | 0.5 to 5 µM | O=C(N[C@@H](CO)C1CCCCC1)C1CC12COc1ccccc12 (some centres unmarked) [Example A8]
1.1 µM | 0.5 to 5 µM | O=C(NC1(c2ccc(F)cc2)COC1)C1CC12COc1ccccc12 (centres unmarked) [Example A9, N-[3-(4-Fluorophenyl)oxetan-3-yl]-2H-spiro[1-benzofuran-3,1′-cyclopropane]-2′-carboxamide]
5.8 µM | 5 to 50 µM | CCOc1ccc(C(CO)NC(=O)C2CC23COc2ccc(F)cc23)cn1 [Example A11, cis-N-[ (1R)-1-(6-Ethoxypyridin-3-yl)-2-hydroxyethyl]-5-fluoro-2H-spiro[1-benzofuran-3,1′-cyclopropane]-2′-carboxamide]
2.3 µM | 0.5 to 5 µM | COc1cc(C2(NC(=O)C3CC34COc3ccc(F)cc34)CC2)ccn1 (stereo not drawn) [Example A17, cis-S-Fluoro-N-[1-(2-methoxypyridin-4-vl)cyclopropyl]-2H-spiro[1-benzofuran-3,1′-cyclopropane]-2′-carboxamide]
